Data as given in article PMC10892419, “UHPLC-MS/MS Assay for Quantification of Legubicin, a Novel Doxorubicin-Based Legumain-Activated Prodrug, and Its Application to Pharmacokinetic and Tissue Distribution Studies” (Molecules, 2024).

How the values were obtained:
[1] = Storage stability of analytes in rat plasma (method validation); conditions: for Auto-Sampler Stability at 2–8 °C (72 h), Bias / Auto-Sampler Stability at 2–8 °C (72 h), Measured Concentration: processed rat plasma; for Auto-Sampler Stability at 2–8 °C (72 h), Bias / Short-Term Stability at Room Temperature (4 h), Bias / Freeze and Thaw Stability at −80 °C/Room Temperature (3 Cycles), Bias / Long-Term Stability at −80 °C (70 days), Bias: n = 6; for Auto-Sampler Stability at 2–8 °C (72 h), Measured Concentration / Freeze and Thaw Stability at −80 °C/Room Temperature (3 Cycles), Measured Concentration / Long-Term Stability at −80 °C (70 days), Measured Concentration / Short-Term Stability at Room Temperature (4 h), Measured Concentration: n = 6, mean ± SD; for Short-Term Stability at Room Temperature (4 h), Bias / Freeze and Thaw Stability at −80 °C/Room Temperature (3 Cycles), Bias / Long-Term Stability at −80 °C (70 days), Bias / Freeze and Thaw Stability at −80 °C/Room Temperature (3 Cycles), Measured Concentration / Long-Term Stability at −80 °C (70 days), Measured Concentration / Short-Term Stability at Room Temperature (4 h), Measured Concentration: rat plasma; for Short-Term Stability at Room Temperature (4 h), Bias: bias from nominal
Method: (§5) By investigating low- and high-concentration stability QCs in six replicates at different storage conditions, autosampler, short-term (bench-top), freeze and thaw, and long-term stability evaluations were conducted.

[2] = Tissue-distribution study after i.v. legubicin or doxorubicin; conditions: HT1080 tumor-bearing mice
Method: (§1) The mixture was vortexed for 3 min, and then centrifuged at 22,000× g at 4 °C for 10 min. A final analysis was conducted by injecting 5 µL supernatant into a UHPLC-MS/MS system. Mouse plasma samples were treated in the same way as the rat plasma samples, except for protein precipitation, with 200 µL of 5 pmol/mL IS working solution and injection of 2 µL of supernatant for analysis.
Each legubicin administration group corresponded to a sampling time-point (4, 16, 32, 48, 96, 168, and 240 h after administration). […] Blood samples and tumor, heart, and kidney tissues were collected at the sampling time points (4, 16, 32, 48, 96, 168, and 240 h after dosing). In addition, liver, spleen, lung, stomach, small intestine, gonads, brain, skeletal muscle, and skin were also collected at 4, 32, 96, and 240 h post-dose time points in the legubicin administration group. All whole-blood samples were processed according to the same processing steps, described above, for rat whole-blood samples.
(§2) The analysis software (Version 1.5.2, AB Sciex, Vaughan, ON, Canada) was applied to data acquisition and quantification. Pharmacokinetic parameters were calculated with WinNonlin Phoenix (v6.4, Pharsight, Mountain View, CA, USA) with the noncompartmental method, and were presented as mean ± SD (%CV). The “Best fit” strategy in the WinNonlin Phoenix was used for the calculation of elimination half-life and the selection of the elimination phase. Graphs were plotted by GraphPad Software (GraphPad Prism 8.0.2; GraphPad Software, Inc., La Jolla, CA, USA).

[3] = Storage stability of analytes in mouse plasma (method validation); conditions: for Freeze and thaw stability at -80 °C/ room temperature, Bias / Freeze and thaw stability at -80 °C/ room temperature, Measured concentration / Long term stability at -80 °C (30 days), Bias / Short term stability at room temperature (6 h), Bias / Long term stability at -80 °C (30 days), Measured concentration / Short term stability at room temperature (6 h), Measured concentration: mouse plasma; for Freeze and thaw stability at -80 °C/ room temperature, Bias / Freeze and thaw stability at -80 °C/ room temperature, Measured concentration: 1 cycle; for Freeze and thaw stability at -80 °C/ room temperature, Bias / Long term stability at -80 °C (30 days), Bias / Short term stability at room temperature (6 h), Bias / Auto-sampler stability at 2-8 °C, Bias: n = 6; for Freeze and thaw stability at -80 °C/ room temperature, Measured concentration / Long term stability at -80 °C (30 days), Measured concentration / Short term stability at room temperature (6 h), Measured concentration / Auto-sampler stability at 2-8 °C, Measured concentration: n = 6, mean ± SD; for Auto-sampler stability at 2-8 °C, Bias / Auto-sampler stability at 2-8 °C, Measured concentration: processed mouse plasma, 12 h
Method: as §5

[4] = Storage stability of analytes in mouse tumor homogenate (method validation)
Method: Tumor-bearing mouse tumor/individual tissue samples were homogenized by adding PBS at a ratio of 1:5 (e.g., 1 g of tumor sample to 5 mL of PBS) to make a tumor/tissue homogenate. A quantity of 60 µL of homogenate was taken as a tumor/tissue sample and processed in the same manner as the mouse plasma sample, with the exception of 240 µL of IS working solution used for protein precipitation.
as §5

[5] = Single-dose pharmacokinetic study of legubicin, i.v.; conditions: free metabolite in plasma; for AUClast / Cmax: n = 3, mean ± SD; for Tmax: n = 3, median [min, max]
Method: The pharmacokinetic parameters are outlined in Table 5. […] A power-function model was used to fit the relationship between exposure level (Cmax, AUClast, and AUCINF_obs) parameters and dose, and the power exponent (parameter β) and its 90% confidence interval were obtained (see Table S5).
as §1
(§3) (1) For the hydrolysis process, an aliquot of 25 µL of rat/mouse plasma was transferred into an Eppendorf tube, and then 50 µL of enzyme digestion buffer and 25 µL of legumain enzyme were placed into the tube. The mixture was vortexed for 1 min, and then incubated in a water bath for 24 h at 37 °C for enzymatic hydrolysis. (2) For the protein precipitation process, 1000 µL of IS working solution (5 pmol/mL and 50 pmol/mL for rat and mouse plasmas, respectively) was added to the enzymatic-hydrolysis solution. Then, the sample was vortexed for 3 min and centrifuged at 22,000× g for 10 min at 4 °C. Analyses were performed on the 3 µL aliquot of the solution used in the UHPLC-MS/MS system.
(§4) Twenty-four rats, inclusive of both sexes, were randomly distributed into four groups. Groups 1, 2, and 3 were single-dose groups, among which the subjects received legubicin via tail intravenous injection (a dose of 1.5, 5, or 15 mg/kg; i.e., 1.36, 4.52, or 13.6 µmol/kg). The fourth group was utilized for a multi-dose study at 5 mg/kg (once-weekly for 4 consecutive weeks). Blood samples of approximately 150 µL were taken from the jugular vein at 0 h (pre-dosing) and at 0.167 h (10 min), 0.5 h, 1 h, 2 h, 4 h, 8 h, 24 h, 48 h, and 72 h post-dosing in the single-dose groups. Samples were also obtained on days 1 and 22 for the multiple-dose group in the same way as for the single-dose groups. However, on days 8 and 15, samples were taken only before and 10 min after administration. The K2EDTA quantities containing blood samples were centrifuged (4 °C, 4000 rpm, 10 min) to collect plasma samples, which were separated into EP tubes and kept at −80 °C until further assay.
as §2

[6] = Multiple-dose pharmacokinetic study of legubicin, weekly i.v. for 4 weeks; conditions: free metabolite in plasma, weekly i.v. legubicin 5 mg/kg; for Tmax: median [min, max]; for AUClast / Cmax: n = 3
Method: as §1, §3, §4, §2

[7] = high QC (Leu-DOX 4000, DOX 1200 pmol/mL, conjugate 80 nmol/mL)
[8] = high QC (nominal Leu-DOX 4000, DOX 1200 pmol/mL)
[9] = low QC (Leu-DOX 10, DOX 3 pmol/mL, conjugate 0.2 nmol/mL)
[10] = low QC (nominal Leu-DOX 10, DOX 3 pmol/mL)
[11] = i.v. 9.05 µmol/kg of the labelled drug, n = 6, UHPLC-MS/MS
[12] = high QC (Leu-DOX 2400, DOX 800 pmol/mL)
[13] = high QC (nominal Leu-DOX 2400, DOX 800 pmol/mL)
[14] = low QC (Leu-DOX 9, DOX 3 pmol/mL)
[15] = low QC (nominal Leu-DOX 9, DOX 3 pmol/mL)
[16] = high QC (Leu-DOX 2400, DOX 800 pmol/mL, conjugate 80 nmol/mL)
[17] = low QC (Leu-DOX 9, DOX 3 pmol/mL, conjugate 0.2 nmol/mL)
[18] = female SD rats, single i.v. legubicin 5 mg/kg
[19] = female SD rats, single i.v. legubicin 15 mg/kg
[20] = male SD rats, single i.v. legubicin 5 mg/kg
[21] = male SD rats, single i.v. legubicin 15 mg/kg
[22] = female SD rats, multiple dose (day 22)
[23] = female SD rats, single dose (day 1)
[24] = male SD rats, multiple dose (day 22)
[25] = male SD rats, single dose (day 1)

COc1cccc2c1C(=O)c1c(O)c3c(c(O)c1C2=O)C[C@@](O)(C(=O)CO)C[C@@H]3O[C@H]1C[C@H](N)[C@H](O)[C@H](C)O1 [DOX, Doxorubicin]
Auto-Sampler Stability at 2–8 °C (72 h), Bias [1, 7]: 1.0%
Auto-Sampler Stability at 2–8 °C (72 h), Measured Concentration [1, 8]: 1211.67 ± 104.58 nM
Auto-Sampler Stability at 2–8 °C (72 h), Bias [1, 9]: 4.4%
Auto-Sampler Stability at 2–8 °C (72 h), Measured Concentration [1, 10]: 3.13 ± 0.25 nM
Short-Term Stability at Room Temperature (4 h), Bias [1, 7]: 3.2%
Freeze and Thaw Stability at −80 °C/Room Temperature (3 Cycles), Bias [1, 7]: 1.8%
Long-Term Stability at −80 °C (70 days), Bias [1, 7]: −0.8%
Freeze and Thaw Stability at −80 °C/Room Temperature (3 Cycles), Measured Concentration [1, 8]: 1221.67 ± 97.45 pmol/mL
Long-Term Stability at −80 °C (70 days), Measured Concentration [1, 8]: 1190.00 ± 40.50 pmol/mL
Short-Term Stability at Room Temperature (4 h), Measured Concentration [1, 8]: 1238.33 ± 100.48 pmol/mL
Short-Term Stability at Room Temperature (4 h), Bias [1, 9]: 1.2%
Freeze and Thaw Stability at −80 °C/Room Temperature (3 Cycles), Bias [1, 9]: 0.4%
Long-Term Stability at −80 °C (70 days), Bias [1, 9]: −0.6%
Freeze and Thaw Stability at −80 °C/Room Temperature (3 Cycles), Measured Concentration [1, 10]: 3.01 ± 0.15 pmol/mL
Long-Term Stability at −80 °C (70 days), Measured Concentration [1, 10]: 2.98 ± 0.29 pmol/mL
Short-Term Stability at Room Temperature (4 h), Measured Concentration ([1]; low QC (nominal Leu-DOX 10, DOX 3 pmol/mL), UHPLC-MS/MS): 3.04 ± 0.18 pmol/mL
AUClast of doxorubicin in heart [2, 11]: 29.0 nmol·h/g
AUClast of doxorubicin in kidney [2, 11]: 83.5 nmol·h/g
AUClast of doxorubicin in plasma [2, 11]: 1.07 nmol·h/g
AUClast of doxorubicin in tumor [2, 11]: 63.1 nmol·h/g
order of exposure (Dox distribution) ([2]; after i.v. doxorubicin 9.05 µmol/kg, n = 6): kidney > tumor > heart > plasma
time of maximum concentration (Cmax) in all tissues ([2]; after i.v. doxorubicin 9.05 µmol/kg, initial sampling point): 4 h
brain penetration of the metabolite ([2]; after i.v. legubicin 9.05 µmol/kg): neither the metabolite doxorubicin nor free Leu-Dox permeated the brain
tissue concentration rank order of the metabolite ([2]; after i.v. legubicin 9.05 µmol/kg, n = 6): liver having the highest levels, followed by the tumor, skin, lung, gonads, spleen, kidney, stomach, small intestine, skeletal muscle, heart, and plasma
Freeze and thaw stability at -80 °C/ room temperature, Bias [3, 12]: -7.0%
Freeze and thaw stability at -80 °C/ room temperature, Measured concentration [3, 13]: 744.33 ± 11.66 pmol/mL
Freeze and thaw stability at -80 °C/ room temperature, Bias [3, 14]: -8.6%
Freeze and thaw stability at -80 °C/ room temperature, Measured concentration [3, 15]: 2.74 ± 0.07 pmol/mL
Long term stability at -80 °C (30 days), Bias [3, 16]: 4.8%
Short term stability at room temperature (6 h), Bias [3, 16]: -9.3%
Long term stability at -80 °C (30 days), Measured concentration [3, 13]: 838.33 ± 13.81 pmol/mL
Short term stability at room temperature (6 h), Measured concentration [3, 13]: 728.83 ± 15.41 pmol/mL
Long term stability at -80 °C (30 days), Bias [3, 17]: -1.1%
Short term stability at room temperature (6 h), Bias [3, 17]: -9.4%
Long term stability at -80 °C (30 days), Measured concentration [3, 15]: 2.97 ± 0.23 pmol/mL
Short term stability at room temperature (6 h), Measured concentration [3, 15]: 2.72 ± 0.17 pmol/mL
Auto-sampler stability at 2-8 °C, Bias [3, 12]: -8.2%
Auto-sampler stability at 2-8 °C, Measured concentration [3, 13]: 734.00 ± 10.90 pmol/mL
Auto-sampler stability at 2-8 °C, Bias [3, 14]: -7.9%
Auto-sampler stability at 2-8 °C, Measured concentration [3, 15]: 2.76 ± 0.16 pmol/mL
Freeze and thaw stability at -80 °C/ room temperature, Bias ([4]; mouse tumor homogenate, 3 cycles, low QC (Leu-DOX 27, DOX 9 pmol/mL), n = 6): -1.2%
Freeze and thaw stability at -80 °C/ room temperature, Measured concentration ([4]; mouse tumor homogenate, 3 cycles, low QC (nominal Leu-DOX 27, DOX 9 pmol/mL), n = 6, mean ± SD): 8.89 ± 0.66 pmol/mL
Short term stability at room temperature (6 h), Bias ([4]; mouse tumor homogenate, low QC (Leu-DOX 27, DOX 9 pmol/mL), n = 6): 5.7%
Short term stability at room temperature (6 h), Measured concentration ([4]; mouse tumor homogenate, low QC (nominal Leu-DOX 27, DOX 9 pmol/mL), n = 6, mean ± SD): 9.51 ± 0.67 pmol/mL
Auto-sampler stability at 2-8 °C, Bias ([4]; processed mouse tumor homogenate, 48h, low QC (Leu-DOX 27, DOX 9 pmol/mL), n = 6): -5.1%
Auto-sampler stability at 2-8 °C, Measured concentration ([4]; processed mouse tumor homogenate, 48h, low QC (nominal Leu-DOX 27, DOX 9 pmol/mL), n = 6, mean ± SD): 8.54 ± 0.89 pmol/mL
AUClast [5, 18]: 0.1 ± 0.00538 µM·h
Cmax [5, 18]: 3.11 ± 0.615 nM
Tmax [5, 18]: 0.167 [0.167, 0.167] h
AUClast [5, 19]: 0.486 ± 0.0464 µM·h
Cmax [5, 19]: 20.5 ± 5.06 nM
Tmax [5, 19]: 0.167 [0.167, 0.167] h
AUClast [5, 20]: 0.173 ± 0.0243 µM·h
Cmax [5, 20]: 6.65 ± 1.30 nM
Tmax [5, 20]: 0.167 [0.167, 0.167] h
AUClast [5, 21]: 0.789 ± 0.0997 µM·h
Cmax [5, 21]: 44.2 ± 4.65 nM
Tmax [5, 21]: 0.167 [0.167, 0.167] h
Tmax [6, 22]: 0.167 [0.167, 0.167] h
AUClast [6, 22]: 0.174 ± 0.0367 µM·h
Cmax [6, 22]: 4.70 ± 0.534 nM
Tmax [6, 23]: 0.167 [0.167, 0.167] h
AUClast [6, 23]: 0.0945 ± 0.0447 µM·h
Cmax [6, 23]: 3.10 ± 0.367 nM
Tmax [6, 24]: 0.167 [0.167, 0.167] h
AUClast [6, 24]: 0.207 ± 0.0112 µM·h
Cmax [6, 24]: 8.58 ± 0.616 nM
Tmax [6, 25]: 0.167 [0.167, 0.167] h
AUClast [6, 25]: 0.123 ± 0.0441 µM·h
Cmax [6, 25]: 6.01 ± 0.430 nM
